{
  "source": "patent US20160067232A1",
  "about": "“METHODS FOR TREATING A STROKE-RELATED SENSORIMOTOR IMPAIRMENT USING AMINOPYRIDINES” (Acorda Therapeutics, Inc., priority 2011, published 2016)",
  "format_in_all_cases": "in vivo, Sprague Dawley rat",
  "key": {"[1]": {"tested_on": "rats with middle cerebral artery occlusion (MCAO)", "assay": "Cylinder test, overall asymmetry (%), MCAO rats (Example 2)", "method": "(§1) Dosing and Treatment: Rats were treated in accordance with the dosing schedule shown in Tables 2A, 2B, 3 and FIG. 2, with each Phase being a two week period of time. A solution of 4-AP was used in this experiment. Dosing was started at 4 weeks after ischemic event. 4-aminopyridine was dissolved in water for injection (WFI, Cellgro) and sterile filtered. […] Vehicle control treatment was WFI delivered at 2 mL/kg by gastric gavage. […] Starting on day 30 after MCAO (Day 30, start of phase 1), the animals received gavage dosing of solutions (2 mL/kg) approximately 12 hours apart, for a total of five doses. The same schedule was repeated with different treatment on Day 44 and Day 58 for phase 2 and 3 of the study, respectively. Animals were not treated during the 10 days between phases (washout period). Treatment groups: Dosing was started 4 weeks after MCAO surgery. During these 4 weeks, weekly behavioral assessments, as defined below, were performed. Two dose levels of 4-AP plus vehicle control were assessed, with treatment starting at 4 weeks after ischemic event. […] Animals were given the first dose and behavioral assessments were performed starting 60 minutes after dosing. Animals then received the second dose that day at the appropriate time and b.i.d (preferably every 12 hours) thereafter for 2 more days (3 total days of dosing, 5 total doses). One hour after the 5th dose, animals were subjected to behavioral assessments as defined below. Following the final behavioral assessment, drug was withdrawn for 10 or 11 days, behavior was re-assessed, and then animals were re-challenged with a cross-over treatment (Phase 2 of Table 2B) as described in Tables 2A, 2B and 3, followed by the same behavioral testing and dosing regimen. This cross-over was repeated one more time as well (Phase 3 of Table 2B) (see FIG. 2). Cylinder Test: Evaluation was performed at Day −1 (pre-operation), Day 7, Day 21, Day 30, Day 32, Day 44, Day 46, Day 58, Day 60. This test assessed limb use asymmetry. Rats were placed in a transparent cylinder (20 cm in diameter and 30 cm in height) for 3-6 minutes. A mirror was placed behind the cylinder to determine forelimb movements when animal was turned away from the camera. […] Simultaneous use of both left and right forelimbs while contacting the wall during a full rear was also scored. A total number of 20 forelimb placings were counted during a trial. Data was expressed in terms of percent use of the non-impaired and or impaired forelimb relative to the total number of limb use observations for wall movements."}, "[2]": {"tested_on": "rats with middle cerebral artery occlusion (MCAO)", "assay": "Cylinder test, total movement, MCAO rats (Example 2)", "settings": "individual animals and Mean (N=15), listed as 4-AP", "method": "as §1"}, "[3]": {"tested_on": "rats with middle cerebral artery occlusion (MCAO)", "assay": "Hindlimb placing test, MCAO rats, dose escalation study (Example 17)", "source_text": "Limb Placing: Evaluated at Day −1 (pre-operation), Day 1, Day 7, Day 14, Day 21, Day 28, Day 30, Day 32, Day 42, Day 44, Day 46, Day 56, Day 58, Day 60. The limb placing tests were divided into forelimb and hindlimb tests. For the forelimb-placing test, the examiner held the rat close to a tabletop and scored the rat's ability to place the forelimb on the tabletop in response to whisker, visual, tactile, or proprioceptive stimulation. Similarly, for the hindlimb placing test, the examiner assessed the rat's ability to place the hindlimb on the tabletop in response to tactile and proprioceptive stimulation. Together, these tests reflect function and recovery in the sensorimotor systems (De Ryck et al., Brain Res 1992; 573:44-60). Separate sub-scores were obtained for each mode of sensory input and added to give total scores (for the forelimb placing test: 0=normal, 12=maximally impaired; for the hindlimb placing test: 0=normal; 6=maximally impaired). Scores were given in half-point increments (see below). Typically, there is a slow and steady recovery of limb placing behavior during the first month after stroke.\nHindlimb placing test (0-6): • tactile placing (dorsal (0-2), lateral (0-2)) • proprioceptive placing (0-2).\nFor each subtest, animals are scored as followed: • 0.0=immediate response • 0.5=response within 2 seconds • 1.0=response of 2-3 seconds • 1.5=response of >3 seconds • 2.0=no response\n4-AP was evaluated for its ability to promote functional sensorimotor improvement following ischemic stroke in rats with stable motor deficits at times remote from their ischemic events. The animal model of ischemic stroke, i.e., the MCAO model, used in this example is the same as the animal model described in Example 2.\nIn the MCAO model recovery begins to plateau by 4 weeks after MCAO, at which time there are still measurable deficits in sensorimotor function. However, 4 weeks after MCAO there may still be slow continued endogenous recovery.\n4-aminopyridine was dissolved in water for injection (WFI, Cellgro) and sterile filtered. Solutions of 0.25 mg/mL, 0.5 mg/mL and 1.0 mg/mL of 4-aminopyridine were delivered by gastric gavage at 2 mL/kg for final doses of 0.5 mg/kg, 1 mg/kg or 2.0 mg/kg respectively. Vehicle control treatment was WFI delivered at 2 mL/kg by gastric gavage. Starting on Day 56 after MCAO, animals received gastric gavage of solutions (2 mL/kg) approximately 12 hours apart. The vehicle control group was treated with water for all doses on Days 56-65. For the treated group, six doses of 4-aminopyridine at 0.5 mg/kg were delivered over Days 56-59, followed by six doses at 1.0 mg/kg over Days 59-62 and six doses at 2.0 mg/kg over Days 62-65. Animals in all groups were not treated during Days 66-70. p.o.=par oral. […]"}},
  "note": "Several values for one entry are separate records, joined by “and”; a condition that tells them apart may be missing. Identical values can stand only once.",
  "data": [
    {"smiles": "Nc1ccncc1", "note": "[4-aminopyridine]", "values": [
      {"measurement": "Cylinder Test Score (Overall Asymmetry (%)) Group 2, D30", "setting": "[1]; Group 2, D30, treatment phase 1 (low-dose 4-AP), individual animals and Mean (N=15), listed as 4-AP", "result": "0.00% and 75.00% and 23.33% and 20.00% and 6.90%"},
      {"measurement": "Cylinder Test Score (Overall Asymmetry (%)) Group 2, D32", "setting": "[1]; Group 2, D32, treatment phase 1 (low-dose 4-AP), individual animals and Mean (N=15), listed as 4-AP", "result": "33.33% and 16.00% and 20.00% and 50.00% and 0.00%"},
      {"measurement": "Cylinder Test Score (Overall Asymmetry (%)) Group 2, D58", "setting": "[1]; Group 2, D58, treatment phase 3 (high-dose 4-AP), individual animals and Mean (N=12), listed as 4-AP", "result": "50.00% and 30.00% and 88.00% and 33.33%"},
      {"measurement": "Cylinder Test Score (Overall Asymmetry (%)) Group 2, D60", "setting": "[1]; Group 2, D60, treatment phase 3 (high-dose 4-AP), individual animals and Mean (N=14), listed as 4-AP", "result": "64.00% and 20.00% and 10.00% and 0.00% (3×) and −100.00% (2×)"},
      {"measurement": "Cylinder Test Score (Overall Asymmetry (%)) Group 3, D44", "setting": "[1]; Group 3, D44, treatment phase 2 (high-dose 4-AP), individual animals and Mean (N=13), listed as 4-AP", "result": "40.00% and 20.00% and 100.00% and 0.00%"},
      {"measurement": "Cylinder Test Score (Overall Asymmetry (%)) Group 3, D46", "setting": "[1]; Group 3, D46, treatment phase 2 (high-dose 4-AP), individual animals and Mean (N=13), listed as 4-AP", "result": "50.00% and −60.00% and 0.00% and 6.90%"},
      {"measurement": "Cylinder Test Score (Overall Asymmetry (%)) Group 3, D58", "setting": "[1]; Group 3, D58, treatment phase 3 (low-dose 4-AP), individual animals and Mean (N=15), listed as 4-AP", "result": "0.00% (2×) and 5.00%"},
      {"measurement": "Cylinder Test Score (Overall Asymmetry (%)) Group 3, D60", "setting": "[1]; Group 3, D60, treatment phase 3 (low-dose 4-AP), individual animals and Mean (N=15), listed as 4-AP", "result": "−25.00% and 0.00% (2×) and 16.00%"},
      {"measurement": "Effect on body symmetry and coordination, cylinder test (FIG. 7)", "setting": "[1]; reversible and dose-dependent", "result": "effective to improve body symmetry and coordination"},
      {"measurement": "Cylinder Test (Total Movement) Group 1, D30", "setting": "[2]; Group 1, D30, treatment phase 1 (high-dose 4-AP)", "result": "0.00 (5×) and 75.00 and 2.00 and 10.00 (2×) and 6.00 and 13.00 and 12.00 and 4.00 and 5.00 (2×)"},
      {"measurement": "Cylinder Test (Total Movement) Group 1, D32", "setting": "[2]; Group 1, D32, treatment phase 1 (high-dose 4-AP)", "result": "11.00 and 54.00 and 22.00 and 39.00 and 10.00 and 8.00 and 14.00 and 15.00 and 0.00 (2×) and 38.00 and 2.00 and 1.00 and 6.00 and 23.00"},
      {"measurement": "Cylinder Test (Total Movement) Group 1, D44", "setting": "[2]; Group 1, D44, treatment phase 2 (low-dose 4-AP)", "result": "28.00 and 93.00 and 48.00 and 57.00 and 47.00 and 9.00 and 11.00 and 5.00 and 66.00 and 25.00 and 6.00 and 43.00 and 20.00 and 7.00"},
      {"measurement": "Cylinder Test (Total Movement) Group 1, D46", "setting": "[2]; Group 1, D46, treatment phase 2 (low-dose 4-AP)", "result": "11.00 and 47.00 and 43.00 and 48.00 and 46.00 and 12.00 and 63.00 and 4.00 and 0.00 (2×) and 13.00 and 2.00 and 6.00 and 39.00 and 24.00"},
      {"measurement": "Hind limb placing score compared to vehicle", "setting": "[3]; 0.5 mg/kg b.i.d. p.o., Day 59", "result": "improved with the low dose but did not reach significance"},
      {"measurement": "Hind limb placing compared to vehicle", "setting": "[3]; 1 mg/kg b.i.d. p.o., Day 62, p<0.05", "result": "measureable improvement"},
      {"measurement": "Hind limb function compared to vehicle", "setting": "[3]; 2 mg/kg b.i.d. p.o., Day 65, p<0.001", "result": "significant improvements"},
      {"measurement": "Hind limb score after treatment withdrawn for 5 days", "setting": "[3]; Day 70, p<0.05", "result": "remained greater than the vehicle treated group"}
    ]}
  ]
}
